Measurements as given in US6737383B1, “Herbicidal oxadiazolidines” (priority 1999, dated 2004).

Columns and labels:
velvetleaf = assay: Test A velvetleaf; type: in vivo, Abutilon theophrasti; conditions: 0 to 10 scale where 0 is no effect and 10 is complete control
Summary of the method: (§1)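 Ratings came from visual comparison with untreated plants about eleven days after treatment, scored 0 for no effect through 10 for complete control. Both soil-drench preemergence and runoff-spray postemergence applications were made at the same time.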

crabgrass = assay: Test A crabgrass; type: in vivo, Digitaria spp.; conditions: 0 to 10 scale where 0 is no effect and 10 is complete control
Summary of the method: as §1

barnyardgrass = assay: Test A barnyardgrass; type: in vivo, Echinochloa crus-galli; conditions: 0 to 10 scale where 0 is no effect and 10 is complete control
Summary of the method: as §1

morningglory = assay: Test A morningglory; type: in vivo, Ipomoea spp.; conditions: 0 to 10 scale where 0 is no effect and 10 is complete control
Summary of the method: as §1

corn = assay: Test C postemergence corn; type: in vivo, Zea mays; conditions: 0 to 100 scale, 0 no effect, 100 complete control
Summary of the method: (§2)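 Greenhouse postemergence test: compound applied in solvent/surfactant formulation to established plants; visual scoring 0–100 against untreated controls after roughly two to three weeks (14–21 days).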

field bindweed = assay: Test C postemergence field bindweed; type: in vivo, Convolvulus arvensis; conditions: 0 to 100 scale, 0 no effect, 100 complete control
Summary of the method: as §2

soybean = assay: Test C postemergence soybean; type: in vivo, Glycine max; conditions: 0 to 100 scale, 0 no effect, 100 complete control
Description: Compounds evaluated in this test were formulated in a non-phytotoxic solvent mixture which included a surfactant and applied to plants that were grown for various periods of time before treatment (postemergence application). A mixture of sandy loam soil and greenhouse potting mix in a 60:40 ratio was used for the postemergence test.
Plantings of these crops and weed species were adjusted to produce plants of appropriate size for the postemergence test. All plant species were grown using normal greenhouse practices. Crop and weed species include arrowleaf sida (Sida rhombifolia), barnyardgrass (Echinochloa crus-galli), cocklebur (Xanthium strumarium), common ragweed (Ambrosia elatior), corn (Zea mays), cotton (Gossypium hirsutum), eastern black nightshade (Solanum ptycanthum), fall panicum (Panicum dichotomiflorum), field bindweed (Convolvulus arvensis), giant foxtail (Setaria faberii), hairy beggarticks (Bidens pilosa), ivyleaf morningglory (Ipomoea hederacea), johnsongrass (Sorghum halepense), ladysthumb smartweed (Polygonum persicaria), lambsquarters (Chenopodium album), large crabgrass (Digitaria sanguinalis), purple nutsedge (Cyperus rotundus), redroot pigweed (Amaranthus retroflexus), soybean (Glycine max), surinam grass (Brachiaria decumbens), velvetleaf (Abutilon theophrasti) and wild poinsettia (Euphorbia heterophylla).
Treated plants and untreated controls were maintained in a greenhouse for approximately 14, to 21 days, after which all treated plants were compared to untreated controls and visually evaluated. Plant response ratings, summarized in Table C, were based upon a 0 to 100 scale where 0 was no effect and 100 was complete control. A dash response (−) means no test result.

hairy beggarticks = assay: Test C postemergence hairy beggarticks; type: in vivo, Bidens pilosa; conditions: 0 to 100 scale, 0 no effect, 100 complete control
Summary of the method: as §2

redroot pigweed = assay: Test C postemergence redroot pigweed; type: in vivo, Amaranthus retroflexus; conditions: 0 to 100 scale, 0 no effect, 100 complete control
Summary of the method: as §2

ladysthumb smartweed = assay: Test C postemergence ladysthumb smartweed; type: in vivo, Polygonum persicaria; conditions: 0 to 100 scale, 0 no effect, 100 complete control
Summary of the method: as §2

Cc1ccccc1-n1c(=O)on(C(=O)N(c2cc(OC(C)C)c(Cl)cc2Cl)C(C)C)c1=O [Compound 42]
Plant response rating, Velvetleaf (velvetleaf; Postemergence, Rate 1000 g/ha): 0
Plant response rating, Velvetleaf (velvetleaf; Pre-emergence, Rate 2000 g/ha): 0
Plant response rating, Crabgrass (crabgrass; Postemergence, Rate 1000 g/ha): 0
Plant response rating, Crabgrass (crabgrass; Pre-emergence, Rate 2000 g/ha): 0
Plant response rating, Barnyardgrass (barnyardgrass; Postemergence, Rate 1000 g/ha): 0
Plant response rating, Barnyardgrass (barnyardgrass; Pre-emergence, Rate 2000 g/ha): 0
Plant response rating, Morningglory (morningglory; Postemergence, Rate 1000 g/ha): 0
Plant response rating, Morningglory (morningglory; Pre-emergence, Rate 2000 g/ha): 0

CC(C)N(C(=O)n1oc(=O)n(Cc2ccccc2)c1=O)c1ccccc1 [Compound 94]
Plant response rating, Corn (corn; Rate 140 g/ha): 0
Plant response rating, Corn (corn; Rate 280 g/ha): 0
Plant response rating, Corn (corn; Rate 560 g/ha): 0
Plant response rating, Corn (corn; Rate 1120 g/ha): 0
Plant response rating Field bindweed (field bindweed; Rate 140 g/ha): 0
Plant response rating Field bindweed (field bindweed; Rate 280 g/ha): 0
Plant response rating Field bindweed (field bindweed; Rate 560 g/ha): 0
Plant response rating Field bindweed (field bindweed; Rate 1120 g/ha): 0
Plant response rating, Soybean (soybean; Rate 140 g/ha): 15
Plant response rating, Soybean (soybean; Rate 280 g/ha): 15
Plant response rating, Soybean (soybean; Rate 560 g/ha): 30
Plant response rating, Soybean (soybean; Rate 1120 g/ha): 55
Plant response rating H. beggarticks (hairy beggarticks; Rate 140 g/ha): 0
Plant response rating H. beggarticks (hairy beggarticks; Rate 280 g/ha): 0
Plant response rating H. beggarticks (hairy beggarticks; Rate 560 g/ha): 5
Plant response rating H. beggarticks (hairy beggarticks; Rate 1120 g/ha): 20
Plant response rating, Redroot pigweed (redroot pigweed; Rate 560 g/ha): 0
Plant response rating, Redroot pigweed (redroot pigweed; Rate 1120 g/ha): 0
Plant response rating Ladysthumb (ladysthumb smartweed; Rate 140 g/ha): 5
Plant response rating Ladysthumb (ladysthumb smartweed; Rate 280 g/ha): 10
Plant response rating Ladysthumb (ladysthumb smartweed; Rate 560 g/ha): 85
Plant response rating Ladysthumb (ladysthumb smartweed; Rate 1120 g/ha): 90

Cc1ccc(N(C(=O)n2oc(=O)n(C(C)C)c2=O)C(C)C)cc1 [Compound 132]
Plant response rating, Corn (corn; Rate 140 g/ha): 0
Plant response rating, Corn (corn; Rate 280 g/ha): 0
Plant response rating, Corn (corn; Rate 560 g/ha): 0
Plant response rating, Corn (corn; Rate 1120 g/ha): 10
Plant response rating Field bindweed (field bindweed; Rate 140 g/ha): 0
Plant response rating Field bindweed (field bindweed; Rate 280 g/ha): 0
Plant response rating Field bindweed (field bindweed; Rate 560 g/ha): 40
Plant response rating Field bindweed (field bindweed; Rate 1120 g/ha): 70
Plant response rating, Soybean (soybean; Rate 140 g/ha): 5
Plant response rating, Soybean (soybean; Rate 280 g/ha): 20
Plant response rating, Soybean (soybean; Rate 560 g/ha): 30
Plant response rating, Soybean (soybean; Rate 1120 g/ha): 40
Plant response rating H. beggarticks (hairy beggarticks; Rate 140 g/ha): 0
Plant response rating H. beggarticks (hairy beggarticks; Rate 280 g/ha): 0
Plant response rating, Redroot pigweed (redroot pigweed; Rate 140 g/ha): 0
Plant response rating, Redroot pigweed (redroot pigweed; Rate 280 g/ha): 10
Plant response rating, Redroot pigweed (redroot pigweed; Rate 1120 g/ha): 30

CC(C)N(C(=O)n1oc(=O)n(C)c1=O)c1ccc(Cl)cc1 [Compound 137]
Plant response rating, Velvetleaf (velvetleaf; Postemergence, Rate 1000 g/ha): 2
Plant response rating, Velvetleaf (velvetleaf; Pre-emergence, Rate 2000 g/ha): 5
Plant response rating, Crabgrass (crabgrass; Postemergence, Rate 1000 g/ha): 8
Plant response rating, Crabgrass (crabgrass; Pre-emergence, Rate 2000 g/ha): 10
Plant response rating, Barnyardgrass (barnyardgrass; Postemergence, Rate 1000 g/ha): 8
Plant response rating, Barnyardgrass (barnyardgrass; Pre-emergence, Rate 2000 g/ha): 10
Plant response rating, Morningglory (morningglory; Postemergence, Rate 1000 g/ha): 10
Plant response rating, Morningglory (morningglory; Pre-emergence, Rate 2000 g/ha): 3

CC(C)N(C(=O)n1oc(=O)n(N(C)c2ccccc2)c1=O)c1ccc(F)cc1 [Compound 177]
Plant response rating, Velvetleaf (velvetleaf; Postemergence, Rate 1000 g/ha): 2
Plant response rating, Velvetleaf (velvetleaf; Pre-emergence, Rate 2000 g/ha): 1
Plant response rating, Crabgrass (crabgrass; Postemergence, Rate 1000 g/ha): 3
Plant response rating, Crabgrass (crabgrass; Pre-emergence, Rate 2000 g/ha): 9
Plant response rating, Barnyardgrass (barnyardgrass; Postemergence, Rate 1000 g/ha): 0
Plant response rating, Barnyardgrass (barnyardgrass; Pre-emergence, Rate 2000 g/ha): 9
Plant response rating, Morningglory (morningglory; Postemergence, Rate 1000 g/ha): 0
Plant response rating, Morningglory (morningglory; Pre-emergence, Rate 2000 g/ha): 0

CCN(C(=O)n1oc(=O)n(N(C)c2ccccc2)c1=O)C1CCCCC1 [Compound 183]
Plant response rating, Velvetleaf (velvetleaf; Postemergence, Rate 1000 g/ha): 0
Plant response rating, Velvetleaf (velvetleaf; Pre-emergence, Rate 2000 g/ha): 0
Plant response rating, Crabgrass (crabgrass; Postemergence, Rate 1000 g/ha): 1
Plant response rating, Crabgrass (crabgrass; Pre-emergence, Rate 2000 g/ha): 5
Plant response rating, Barnyardgrass (barnyardgrass; Postemergence, Rate 1000 g/ha): 0
Plant response rating, Barnyardgrass (barnyardgrass; Pre-emergence, Rate 2000 g/ha): 9
Plant response rating, Morningglory (morningglory; Postemergence, Rate 1000 g/ha): 0
Plant response rating, Morningglory (morningglory; Pre-emergence, Rate 2000 g/ha): 0

CC(C)N(C(=O)n1oc(=O)n(C2CCCC(C(F)(F)F)C2)c1=O)c1ccc(F)cc1 (stereo not shown) [Compound 184]
Plant response rating, Velvetleaf (velvetleaf; Postemergence, Rate 1000 g/ha): 2
Plant response rating, Velvetleaf (velvetleaf; Pre-emergence, Rate 2000 g/ha): 0
Plant response rating, Crabgrass (crabgrass; Postemergence, Rate 1000 g/ha): 1
Plant response rating, Crabgrass (crabgrass; Pre-emergence, Rate 2000 g/ha): 9
Plant response rating, Barnyardgrass (barnyardgrass; Postemergence, Rate 1000 g/ha): 2
Plant response rating, Barnyardgrass (barnyardgrass; Pre-emergence, Rate 2000 g/ha): 9
Plant response rating, Morningglory (morningglory; Postemergence, Rate 1000 g/ha): 10
Plant response rating, Morningglory (morningglory; Pre-emergence, Rate 2000 g/ha): 0
